Data: article PMC8800111 (The Journal of Biological Chemistry, 2021)

How the values were obtained:
Assay type in all cases: cell-based
[1] = target: proteins of U3A human fibrosarcoma cells (4462 proteins detected) (Homo sapiens, UniProt Q14839); conditions: protein CHD4; soluble abundance after heat, U3A cells
[2] = target: proteins of U3A human fibrosarcoma cells (4462 proteins detected) (Homo sapiens, UniProt Q9NZT2); conditions: protein OGFR, U3A cells
[3] = target: proteins of U3A human fibrosarcoma cells (4462 proteins detected) (Homo sapiens, UniProt Q9H4A3); conditions: protein WNK1, U3A cells
[4] = target: proteins of U3A human fibrosarcoma cells (4462 proteins detected) (Homo sapiens, UniProt Q9UIV1); conditions: protein CNOT7; U3A, 10 μM, 2 h
[5] = target: proteins of U3A human fibrosarcoma cells (4462 proteins detected) (Homo sapiens, UniProt Q3B726); conditions: protein TWISTNB; U3A cells
[6] = target: proteins of U3A human fibrosarcoma cells (4462 proteins detected) (Homo sapiens, UniProt Q9BSJ8); conditions: protein ESYT1; U3A cells
[7] = target: proteins of U3A human fibrosarcoma cells (4462 proteins detected) (Homo sapiens, UniProt Q9Y478); conditions: protein PRKAB1; U3A cells
[8] = target: proteins of U3A human fibrosarcoma cells (4462 proteins detected) (Homo sapiens, UniProt Q12979); conditions: protein ABR; U3A cells
[9] = target: proteins of U3A human fibrosarcoma cells (4462 proteins detected) (Homo sapiens, UniProt Q16666); conditions: protein IFI16; soluble abundance after heat, U3A cells
[10] = target: proteins of U3A human fibrosarcoma cells (4462 proteins detected) (Homo sapiens, UniProt Q9NT62); conditions: protein ATG3; soluble abundance after heat, U3A cells
[11] = target: proteins of U3A human fibrosarcoma cells (4462 proteins detected) (Homo sapiens, UniProt Q9NS91); conditions: protein RAD18; U3A cells
[12] = target: proteins of U3A human fibrosarcoma cells (4462 proteins detected) (Homo sapiens, UniProt O95487); conditions: protein SEC24B, U3A cells
[13] = target: proteins of U3A human fibrosarcoma cells (4462 proteins detected) (Homo sapiens, UniProt Q8TAA5); conditions: protein GRPEL2; U3A cells
[14] = target: proteins of U3A human fibrosarcoma cells (4462 proteins detected) (Homo sapiens, UniProt Q13596); conditions: protein SNX1; U3A cells
[15] = target: proteins of U3A human fibrosarcoma cells (4462 proteins detected) (Homo sapiens, UniProt Q9HC44); conditions: protein GPBP1L1; soluble abundance after heat, U3A cells
[16] = target: proteins of U3A human fibrosarcoma cells (4462 proteins detected) (Homo sapiens, UniProt Q15468); conditions: protein STIL; U3A, 10 μM, 2 h
[17] = target: proteins of U3A human fibrosarcoma cells (4462 proteins detected) (Homo sapiens, UniProt Q7Z4W1); conditions: protein DCXR; soluble abundance after heat, U3A cells
[18] = target: proteins of U3A human fibrosarcoma cells (4462 proteins detected) (Homo sapiens, UniProt P62993); conditions: protein GRB2, U3A cells
[19] = target: proteins of U3A human fibrosarcoma cells (4462 proteins detected) (Homo sapiens, UniProt Q9NXV6); conditions: protein CDKN2AIP; U3A cells
[20] = target: proteins of U3A human fibrosarcoma cells (4462 proteins detected) (Homo sapiens, UniProt P61088); conditions: protein UBE2N; UBE2NL; U3A cells
[21] = target: proteins of U3A human fibrosarcoma cells (4462 proteins detected) (Homo sapiens, UniProt P08758); conditions: protein ANXA5, U3A cells
[22] = target: proteins of U3A human fibrosarcoma cells (4462 proteins detected) (Homo sapiens, UniProt P62487); conditions: protein POLR2G; U3A cells
[23] = target: proteins of U3A human fibrosarcoma cells (4462 proteins detected) (Homo sapiens, UniProt P82663); conditions: protein MRPS25; U3A cells
[24] = target: proteins of U3A human fibrosarcoma cells (4462 proteins detected) (Homo sapiens, UniProt Q9Y2A7); conditions: protein NCKAP1; U3A cells
[25] = target: proteins of U3A human fibrosarcoma cells (4462 proteins detected) (Homo sapiens, UniProt P51532); conditions: protein SMARCA4; U3A cells
[26] = target: proteins of U3A human fibrosarcoma cells (4462 proteins detected) (Homo sapiens, UniProt P21266); conditions: protein GSTM3, U3A cells
[27] = target: proteins of U3A human fibrosarcoma cells (4462 proteins detected) (Homo sapiens, UniProt Q9ULX3); conditions: protein NOB1; U3A cells
[28] = target: proteins of U3A human fibrosarcoma cells (4462 proteins detected) (Homo sapiens, UniProt Q14161); conditions: protein GIT2; soluble abundance after heat, U3A cells
[29] = target: proteins of U3A human fibrosarcoma cells (4462 proteins detected) (Homo sapiens, UniProt Q53FT3); conditions: protein C11orf73; U3A, 10 μM, 2 h
[30] = target: proteins of U3A human fibrosarcoma cells (4462 proteins detected) (Homo sapiens, UniProt P29317); conditions: protein EPHA2; soluble abundance after heat, U3A cells

Chain of proteins of U3A human fibrosarcoma cells (4462 proteins detected) (Homo sapiens, UniProt Q3B726) (Q3B726 whole entry): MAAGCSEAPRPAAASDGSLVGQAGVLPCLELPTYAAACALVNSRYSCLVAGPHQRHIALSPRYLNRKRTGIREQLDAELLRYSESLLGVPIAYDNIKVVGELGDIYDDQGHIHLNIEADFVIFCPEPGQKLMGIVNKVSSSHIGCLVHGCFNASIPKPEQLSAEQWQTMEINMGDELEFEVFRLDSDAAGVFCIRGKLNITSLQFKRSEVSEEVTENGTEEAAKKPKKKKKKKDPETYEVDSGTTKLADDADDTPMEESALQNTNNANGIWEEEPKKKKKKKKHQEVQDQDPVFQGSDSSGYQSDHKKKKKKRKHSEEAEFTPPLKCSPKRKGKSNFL
Chain of proteins of U3A human fibrosarcoma cells (4462 proteins detected) (Homo sapiens, UniProt P51532) (P51532 whole entry): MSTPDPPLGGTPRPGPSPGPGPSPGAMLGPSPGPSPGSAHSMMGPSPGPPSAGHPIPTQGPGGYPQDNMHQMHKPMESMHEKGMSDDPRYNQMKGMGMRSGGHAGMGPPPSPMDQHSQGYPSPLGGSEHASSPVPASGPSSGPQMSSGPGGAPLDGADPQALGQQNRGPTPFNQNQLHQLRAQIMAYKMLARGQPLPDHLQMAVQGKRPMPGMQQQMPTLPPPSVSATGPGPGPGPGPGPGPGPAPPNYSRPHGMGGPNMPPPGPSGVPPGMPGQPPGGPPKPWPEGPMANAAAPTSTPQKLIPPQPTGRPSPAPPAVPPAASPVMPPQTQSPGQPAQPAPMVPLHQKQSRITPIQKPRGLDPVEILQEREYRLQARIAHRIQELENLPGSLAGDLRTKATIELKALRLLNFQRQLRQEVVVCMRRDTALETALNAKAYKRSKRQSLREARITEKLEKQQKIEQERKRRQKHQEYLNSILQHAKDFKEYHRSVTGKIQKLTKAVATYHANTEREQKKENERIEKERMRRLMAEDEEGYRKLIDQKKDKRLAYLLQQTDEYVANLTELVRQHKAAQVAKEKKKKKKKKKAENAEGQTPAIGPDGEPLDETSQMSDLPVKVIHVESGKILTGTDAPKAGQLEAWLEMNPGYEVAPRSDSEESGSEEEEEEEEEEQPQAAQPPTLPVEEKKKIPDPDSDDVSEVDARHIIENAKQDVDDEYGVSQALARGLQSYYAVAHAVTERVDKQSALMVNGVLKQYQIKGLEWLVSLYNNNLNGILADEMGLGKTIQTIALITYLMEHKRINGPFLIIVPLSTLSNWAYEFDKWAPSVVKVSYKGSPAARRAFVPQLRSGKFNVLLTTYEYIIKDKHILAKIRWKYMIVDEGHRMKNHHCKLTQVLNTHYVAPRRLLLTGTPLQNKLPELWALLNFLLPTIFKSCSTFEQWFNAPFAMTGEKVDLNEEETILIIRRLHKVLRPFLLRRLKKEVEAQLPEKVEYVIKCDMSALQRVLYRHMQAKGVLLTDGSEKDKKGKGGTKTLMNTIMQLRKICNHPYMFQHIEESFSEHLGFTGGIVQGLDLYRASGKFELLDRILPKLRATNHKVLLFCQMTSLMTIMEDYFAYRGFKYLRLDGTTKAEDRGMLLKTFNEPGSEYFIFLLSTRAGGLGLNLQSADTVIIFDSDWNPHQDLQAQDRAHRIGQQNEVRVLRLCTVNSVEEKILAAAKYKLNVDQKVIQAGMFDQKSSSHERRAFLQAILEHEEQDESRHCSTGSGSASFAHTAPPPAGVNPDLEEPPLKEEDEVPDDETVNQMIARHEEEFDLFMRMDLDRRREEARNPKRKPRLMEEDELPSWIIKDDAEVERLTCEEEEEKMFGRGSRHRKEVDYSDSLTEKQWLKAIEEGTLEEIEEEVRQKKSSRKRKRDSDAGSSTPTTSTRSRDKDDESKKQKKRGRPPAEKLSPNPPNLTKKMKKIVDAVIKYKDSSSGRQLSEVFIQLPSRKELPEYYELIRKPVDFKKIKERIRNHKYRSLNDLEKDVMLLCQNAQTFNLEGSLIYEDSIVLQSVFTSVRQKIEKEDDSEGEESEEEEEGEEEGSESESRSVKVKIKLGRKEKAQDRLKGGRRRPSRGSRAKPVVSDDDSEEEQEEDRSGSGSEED
Chain of proteins of U3A human fibrosarcoma cells (4462 proteins detected) (Homo sapiens, UniProt Q8TAA5) (Q8TAA5 33-225): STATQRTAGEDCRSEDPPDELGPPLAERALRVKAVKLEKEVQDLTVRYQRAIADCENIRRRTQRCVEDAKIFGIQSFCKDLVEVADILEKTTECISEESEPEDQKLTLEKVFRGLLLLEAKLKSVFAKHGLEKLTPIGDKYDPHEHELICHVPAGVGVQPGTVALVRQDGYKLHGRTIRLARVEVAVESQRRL
Chain of proteins of U3A human fibrosarcoma cells (4462 proteins detected) (Homo sapiens, UniProt P08758) (P08758 whole entry): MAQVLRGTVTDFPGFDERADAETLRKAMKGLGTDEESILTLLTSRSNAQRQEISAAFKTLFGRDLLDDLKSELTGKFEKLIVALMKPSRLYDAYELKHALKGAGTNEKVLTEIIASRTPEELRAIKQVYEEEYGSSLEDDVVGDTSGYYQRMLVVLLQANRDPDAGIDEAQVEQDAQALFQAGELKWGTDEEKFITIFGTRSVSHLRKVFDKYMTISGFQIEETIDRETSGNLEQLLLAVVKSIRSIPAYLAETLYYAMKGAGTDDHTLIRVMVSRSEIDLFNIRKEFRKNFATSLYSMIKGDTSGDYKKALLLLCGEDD
Chain of proteins of U3A human fibrosarcoma cells (4462 proteins detected) (Homo sapiens, UniProt Q9HC44) (Q9HC44 whole entry): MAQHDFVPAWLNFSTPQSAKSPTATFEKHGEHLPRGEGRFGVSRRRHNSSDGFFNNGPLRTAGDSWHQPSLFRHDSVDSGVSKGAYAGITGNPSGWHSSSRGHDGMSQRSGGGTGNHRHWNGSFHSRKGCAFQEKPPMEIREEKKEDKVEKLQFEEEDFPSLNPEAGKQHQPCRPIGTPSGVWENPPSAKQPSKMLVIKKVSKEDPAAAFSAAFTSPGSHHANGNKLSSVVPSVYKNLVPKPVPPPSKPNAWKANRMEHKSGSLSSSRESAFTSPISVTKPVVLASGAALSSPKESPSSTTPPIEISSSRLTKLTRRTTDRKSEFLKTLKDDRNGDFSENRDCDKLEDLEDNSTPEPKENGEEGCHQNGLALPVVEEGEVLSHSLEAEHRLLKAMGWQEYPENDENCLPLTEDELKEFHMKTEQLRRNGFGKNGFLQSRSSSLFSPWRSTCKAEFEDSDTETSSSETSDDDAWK
Chain of proteins of U3A human fibrosarcoma cells (4462 proteins detected) (Homo sapiens, UniProt Q15468) (Q15468 whole entry): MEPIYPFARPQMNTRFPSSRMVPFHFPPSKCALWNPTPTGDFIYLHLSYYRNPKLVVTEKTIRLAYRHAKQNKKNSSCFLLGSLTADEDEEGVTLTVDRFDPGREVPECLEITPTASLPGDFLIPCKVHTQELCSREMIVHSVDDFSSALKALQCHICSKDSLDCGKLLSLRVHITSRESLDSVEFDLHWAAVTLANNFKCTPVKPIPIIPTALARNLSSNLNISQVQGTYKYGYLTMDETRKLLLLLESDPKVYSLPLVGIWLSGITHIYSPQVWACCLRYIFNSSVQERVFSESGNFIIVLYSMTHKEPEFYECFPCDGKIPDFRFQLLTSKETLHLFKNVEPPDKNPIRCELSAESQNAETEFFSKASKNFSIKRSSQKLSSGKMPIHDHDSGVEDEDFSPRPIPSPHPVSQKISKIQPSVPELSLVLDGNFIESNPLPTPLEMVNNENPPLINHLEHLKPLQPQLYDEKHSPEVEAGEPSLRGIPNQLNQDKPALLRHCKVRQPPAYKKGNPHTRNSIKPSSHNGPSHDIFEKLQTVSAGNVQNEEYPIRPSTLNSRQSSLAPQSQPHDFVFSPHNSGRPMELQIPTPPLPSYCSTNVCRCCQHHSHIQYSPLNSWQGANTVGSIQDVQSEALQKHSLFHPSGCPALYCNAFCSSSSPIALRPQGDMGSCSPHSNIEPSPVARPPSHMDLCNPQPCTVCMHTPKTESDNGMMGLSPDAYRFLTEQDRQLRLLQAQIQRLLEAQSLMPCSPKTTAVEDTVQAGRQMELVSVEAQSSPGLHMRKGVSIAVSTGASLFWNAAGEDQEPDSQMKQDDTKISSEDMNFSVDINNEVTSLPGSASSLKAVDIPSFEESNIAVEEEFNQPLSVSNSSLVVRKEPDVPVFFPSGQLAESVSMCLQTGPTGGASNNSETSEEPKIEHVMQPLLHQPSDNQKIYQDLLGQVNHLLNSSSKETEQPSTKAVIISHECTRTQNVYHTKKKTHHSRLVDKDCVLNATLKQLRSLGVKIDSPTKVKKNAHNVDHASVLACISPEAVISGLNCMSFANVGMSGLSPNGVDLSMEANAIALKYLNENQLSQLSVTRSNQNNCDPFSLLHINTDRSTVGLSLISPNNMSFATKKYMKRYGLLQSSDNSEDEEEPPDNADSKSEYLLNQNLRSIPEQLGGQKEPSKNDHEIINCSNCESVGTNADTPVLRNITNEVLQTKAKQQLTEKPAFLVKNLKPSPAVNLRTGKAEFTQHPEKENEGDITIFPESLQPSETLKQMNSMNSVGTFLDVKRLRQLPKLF
Chain of proteins of U3A human fibrosarcoma cells (4462 proteins detected) (Homo sapiens, UniProt Q7Z4W1) (Q7Z4W1 whole entry): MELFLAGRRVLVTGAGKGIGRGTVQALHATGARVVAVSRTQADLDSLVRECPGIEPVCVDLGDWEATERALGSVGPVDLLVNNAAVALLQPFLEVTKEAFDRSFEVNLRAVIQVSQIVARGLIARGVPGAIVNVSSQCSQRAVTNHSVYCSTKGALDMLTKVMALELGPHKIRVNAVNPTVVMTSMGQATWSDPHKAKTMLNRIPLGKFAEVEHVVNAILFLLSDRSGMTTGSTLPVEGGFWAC
Chain of proteins of U3A human fibrosarcoma cells (4462 proteins detected) (Homo sapiens, UniProt P21266) (P21266 whole entry): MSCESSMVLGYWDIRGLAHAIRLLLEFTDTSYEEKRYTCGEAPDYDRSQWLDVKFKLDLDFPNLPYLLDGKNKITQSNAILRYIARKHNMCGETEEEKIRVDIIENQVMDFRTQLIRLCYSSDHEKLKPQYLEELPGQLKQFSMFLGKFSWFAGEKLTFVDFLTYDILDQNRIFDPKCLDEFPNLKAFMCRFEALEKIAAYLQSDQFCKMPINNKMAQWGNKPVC
Chain of proteins of U3A human fibrosarcoma cells (4462 proteins detected) (Homo sapiens, UniProt P62993) (P62993 whole entry): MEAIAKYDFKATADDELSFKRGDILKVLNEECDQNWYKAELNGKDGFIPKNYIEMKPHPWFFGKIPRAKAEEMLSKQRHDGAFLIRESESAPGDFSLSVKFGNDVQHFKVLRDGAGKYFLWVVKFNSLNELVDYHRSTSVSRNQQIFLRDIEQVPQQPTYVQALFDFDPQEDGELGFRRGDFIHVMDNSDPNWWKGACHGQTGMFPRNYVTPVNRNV

Structure (SMILES): CCc1nc(N)nc(N)c1-c1ccc(Cl)cc1 [pyrimethamine]
- Log2 (PYR/DMSO) [1]: 0.14
- Log2 (PYR/DMSO) [2]: -0.04
- Log2 (PYR/DMSO) [3]: -0.04
- Log2 (PYR/DMSO), CNOT7 [4]: -0.24
- Log2 (PYR/DMSO) [5]: 0.16
- Log2 (PYR/DMSO) [6]: 0.20
- Log2 (PYR/DMSO) [7]: 0.23
- Log2 (PYR/DMSO) [8]: 0.18
- Log2 (PYR/DMSO) [9]: 0.13
- Log2 (PYR/DMSO) [10]: 0.13
- Log2 (PYR/DMSO) [11]: 0.17
- Log2 (PYR/DMSO) [12]: -0.04
- Log2 (PYR/DMSO) [13]: 0.18
- Log2 (PYR/DMSO) [14]: 0.17
- Log2 (PYR/DMSO) [15]: 0.14
- Log2 (PYR/DMSO), STIL [16]: 0.35
- Log2 (PYR/DMSO) [17]: 0.14
- Log2 (PYR/DMSO) [18]: -0.04
- Log2 (PYR/DMSO) [19]: 0.16
- Log2 (PYR/DMSO) [20]: 0.21
- Log2 (PYR/DMSO) [21]: -0.04
- Log2 (PYR/DMSO) [22]: 0.18
- Log2 (PYR/DMSO) [23]: 0.17
- Log2 (PYR/DMSO) [24]: 0.15
- Log2 (PYR/DMSO) [25]: 0.16
- Log2 (PYR/DMSO) [26]: -0.04
- Log2 (PYR/DMSO) [27]: 0.15
- Log2 (PYR/DMSO) [28]: 0.14
- Log2 (PYR/DMSO), C11orf73 [29]: 0.28
- Log2 (PYR/DMSO) [30]: 0.15
